Assay results published in US11072585B2 (PharmAkea, Inc., priority 2015, dated 2021).
Counter-ions that a name gives are not always drawn.

Biological target: human LOXL2 (Homo sapiens (Human), UniProt Q9Y4K0)
Test: Human LOXL2 amine oxidase activity assay (Amplex Red)
Assay type: biochemical
Conditions: concentrated conditioned media from CHO cells stably expressing human LOXL2; 2 h at 37° C. with compound; DAP substrate
Protocol: Example B-1: Human LOXL2 Amine Oxidase Activity Assay
LOXL2 amine oxidase activity is evaluated by measuring Amplex Red fluorescence using 10-20× concentrated conditioned media from CHO cells stably expressing human LOXL2. To assay for amine oxidase activity, 10 μL of the concentrated conditioned media is incubated with 2 μL of test compound in DMSO and 73 μL Assay Buffer (50 mM Borate Buffer, pH8) for 2 h at 37° C. After the 2 h incubation, 5 ul of 10 mM 1,5-Diaminopentane (DAP) diluted in Assay Buffer and 10 μl of Amplex Red Mix (8.5 μl Assay Buffer+0.5 μl of 10 mM Amplex Red+1 μl of 500 U/ml Horseradish Peroxidase) are added and the plate mixed and immediately placed on the FlexStaion for fluorescence measurements. Fluorescence is read in kinetic mode every 2 min for 1 hour at excitation=544 and emission=590. The amine oxidase activity is calculated from the slope of the linear portion of the curve.

Sequence of human LOXL2 (Q9Y4K0 26-774): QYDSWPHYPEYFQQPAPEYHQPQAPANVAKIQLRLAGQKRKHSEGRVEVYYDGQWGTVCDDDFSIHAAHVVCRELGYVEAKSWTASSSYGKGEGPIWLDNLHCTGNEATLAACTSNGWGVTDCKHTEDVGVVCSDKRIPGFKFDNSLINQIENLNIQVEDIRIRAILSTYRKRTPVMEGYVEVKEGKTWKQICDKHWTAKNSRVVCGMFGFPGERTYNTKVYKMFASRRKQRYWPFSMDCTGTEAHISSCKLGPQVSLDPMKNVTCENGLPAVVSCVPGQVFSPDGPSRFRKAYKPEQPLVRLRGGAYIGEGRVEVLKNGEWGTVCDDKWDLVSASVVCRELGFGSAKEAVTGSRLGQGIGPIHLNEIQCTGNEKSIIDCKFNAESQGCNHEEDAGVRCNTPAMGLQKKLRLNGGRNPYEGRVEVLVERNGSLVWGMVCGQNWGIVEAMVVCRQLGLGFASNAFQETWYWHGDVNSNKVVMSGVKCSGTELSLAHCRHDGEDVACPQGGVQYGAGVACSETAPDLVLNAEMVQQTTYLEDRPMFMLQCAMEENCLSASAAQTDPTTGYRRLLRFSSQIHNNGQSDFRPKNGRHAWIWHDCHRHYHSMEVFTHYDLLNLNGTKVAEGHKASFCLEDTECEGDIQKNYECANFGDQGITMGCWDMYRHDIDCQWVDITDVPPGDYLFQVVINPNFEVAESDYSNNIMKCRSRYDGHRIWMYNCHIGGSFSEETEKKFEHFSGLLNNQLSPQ

Row | IC50 [nM] | Molecule
1 | < 300 | NCc1cc(Oc2cccc(C(=O)N[C@H]3CCC[C@H]3O)c2)nc(C(F)(F)F)c1 [Compound 1-210, 3-((4-(Aminomethyl)-6-(trifluoromethyl)pyridin-2-yl)oxy)-N-((1S,2R)-2-hydroxycyclopentyl)benzamide hydrochloride]
2 | < 300 | NCc1cc(Oc2cccc(C(=O)Nc3nnco3)c2)nc(C(F)(F)F)c1 [Compound 1-228, 3-((4-(Aminomethyl)-6-(trifluoromethyl)pyridin-2-yl)oxy)-N-(1,3,4-oxadiazol-2-yl)benzamide hydrochloride]
3 | < 300 | NCc1cc(Oc2cccc(C(=O)NC[C@@H](O)CO)c2)nc(C(F)(F)F)c1 [Compound 1-33, (R)-3-((4-(Aminomethyl)-6-(trifluoromethyl)pyridin-2-yl)oxy)-N-(2,3-dihydroxypropyl)benzamide hydrochloride]
4 | < 300 | NCc1cc(Oc2cccc(C(=O)N3C[C@@H](F)[C@@H](O)C3)c2)nc(C(F)(F)F)c1 (racemic) [Compound 1-211, Racemic-cis-(3-((4-(aminomethyl)-6-(trifluoromethyl)pyridin-2-yl)oxy)phenyl)(3-fluoro-4-hydroxypyrrolidin-1-yl)methanone hydrochloride]
5 | < 300 | CN(C)CCNC(=O)c1cccc(Oc2cc(CN)cc(C(F)(F)F)n2)c1 [Compound 1-35, 3-((4-(Aminomethyl)-6-(trifluoromethyl)pyridin-2-yl)oxy)-N-(2-(dimethylamino)ethyl)benzamide dihydrochloride]
6 | < 300 | CS(=O)(=O)CCNC(=O)c1cncc(Oc2cc(CN)cc(C(F)(F)F)n2)c1 [Compound 1-53, 5-((4-(Aminomethyl)-6-(trifluoromethyl)pyridin-2-yl)oxy)-N-(2-(methylsulfonyl)ethyl)nicotinamide hydrochloride]
7 | < 300 | NCc1cc(Oc2cccc(C(=O)N3CCC4(CC3)CNC(=O)O4)c2)nc(C(F)(F)F)c1 [Compound 1-27, 8-(3-((4-(Aminomethyl)-6-(trifluoromethyl)pyridin-2-yl)oxy)benzoyl)-1-oxa-3,8-diazaspiro[4.5]decan-2-one hydrochloride]
8 | > 1000 | NCc1cc(Oc2cccc(C(=O)N3CCC[C@H]3C(=O)O)c2)nc(C(F)(F)F)c1 [Compound 1-24, (S)-1-(3-((4-(Aminomethyl)-6-(trifluoromethyl)pyridin-2-yl)oxy)benzoyl)pyrrolidine-2-carboxylic acid hydrochloride]
9 | < 300 | COC(=O)c1cccc(C(=O)Nc2cc(CN)cc(C(F)(F)F)n2)c1 [Compound 1-238, Methyl 3-((4-(aminomethyl)-6-(trifluoromethyl)pyridin-2-yl)carbamoyl)benzoate trifluoroacetate]
10 | < 300 | NCc1cc(Oc2cccc(C(=O)N3CC4(CCOCC4)C3)c2)nc(C(F)(F)F)c1 [Compound 1-207, (3-((4-(Aminomethyl)-6-(trifluoromethyl)pyridin-2-yl)oxy)phenyl)(7-oxa-2-azaspiro[3.5]nonan-2-yl)methanone hydrochloride]
11 | < 300 | NCc1cc(Sc2cccc(C(=O)Nc3ccccc3)c2)nc(C(F)(F)F)c1 [Compound 1-68, 3-((4-(Aminomethyl)-6-(trifluoromethyl)pyridin-2-yl)thio)-N-phenylbenzamide hydrochloride]
12 | < 300 | CC(C)(O)CNC(=O)c1cccc(Oc2cc(CN)cc(C(F)(F)F)n2)c1 [Compound 1-32, 3-((4-(Aminomethyl)-6-(trifluoromethyl)pyridin-2-yl)oxy)-N-(2-hydroxy-2-methylpropyl)benzamide hydrochloride]
13 | > 1000 | NCc1cc(Oc2cccc3c2CCC(=O)N3CC(=O)O)nc(C(F)(F)F)c1 [Compound 1-236, 2-(5-((4-(Aminomethyl)-6-(trifluoromethyl)pyridin-2-yl)oxy)-2-oxo-3,4-dihydroquinolin-1(2H)-yl)acetic acid hydrochloride]
14 | < 300 | NCc1cc(Oc2cccc(C(=O)NC3COC3)c2)nc(C(F)(F)F)c1 [Compound 1-200, 3-((4-(Aminomethyl)-6-(trifluoromethyl)pyridin-2-yl)oxy)-N-(oxetan-3-yl)benzamide trifluoroacetate]
15 | < 300 | NCc1cc(Oc2cccc(C(=O)NC3(CO)CC3)c2)nc(C(F)(F)F)c1 [Compound 1-31, 3-((4-(Aminomethyl)-6-(trifluoromethyl)pyridin-2-yl)oxy)-N-(1-(hydroxymethyl)cyclopropyl)benzamide hydrochloride]
16 | < 300 | NCc1cc(Oc2ccnc(C(=O)Nc3ccccc3)c2)nc(C(F)(F)F)c1 [Compound 1-252, 4-((4-(Aminomethyl)-6-(trifluoromethyl)pyridin-2-yl)oxy)-N-phenylpicolinamide hydrochloride]
17 | < 300 | NCc1cc(Oc2cccc(-c3cn[nH]c3)c2)nc(C(F)(F)F)c1 [Compound 1-6, (2-(3-(1H-Pyrazol-4-yl)phenoxy)-6-(trifluoromethyl)pyridin-4-yl)methanamine trifluoroacetate]
18 | < 300 | NCc1cc(Oc2cccc(C(=O)NCC3CCC(=O)N3)c2)nc(C(F)(F)F)c1 (racemic) [Compound 1-29, Racemic-3-((4-(aminomethyl)-6-(trifluoromethyl)pyridin-2-yl)oxy)-N-((5-oxopyrrolidin-2-yl)methyl)benzamide hydrochloride]

More lines, now with the values behind:

Row | Molecule | IC50 [nM]
19 | CS(=O)(=O)OC1CN(C(=O)c2cccc(Oc3cc(CN)cc(C(F)(F)F)n3)c2)CC1F (centres unmarked) [Compound 1-214, hydrochloride] | < 300
20 | NCc1cc(O[C@H]2CCCN(C(=O)c3cncnc3)C2)nc(C(F)(F)F)c1 [Compound 1-50, (S)-(3-((4-(Aminomethyl)-6-(trifluoromethyl)pyridin-2-yl)oxy)piperidin-1-yl)(pyrimidin-5-yl)methanone trifluoroacetate] | < 300
21 | NCc1cc(O[C@H]2CCCN(C(=O)c3cc(=O)c4ccccc4o3)C2)nc(C(F)(F)F)c1 [Compound 1-48, (S)-2-(3-((4-(Aminomethyl)-6-(trifluoromethyl)pyridin-2-yl)oxy)piperidine-1-carbonyl)-4H-chromen-4-one trifluoroacetate] | < 300
22 | NCc1cc(O[C@H]2CCCN(C(=O)Cc3ccc(Cl)c(Cl)c3)C2)nc(C(F)(F)F)c1 [Compound 1-47, (S)-1-(3-((4-(Aminomethyl)-6-(trifluoromethyl)pyridin-2-yl)oxy)piperidin-1-yl)-2-(3,4-dichlorophenyl)ethanone trifluoroacetate] | < 300
23 | NCc1cc(NCc2cccc(C(=O)N3CC[C@H](O)C3)c2)nc(C(F)(F)F)c1 [Compound 1-237, (S)-(3-(((4-(Aminomethyl)-6-(trifluoromethyl)pyridin-2-yl)amino)methyl)phenyl)(3-hydroxypyrrolidin-1-yl)methanone hydrochloride] | 300 to 1000
24 | NCc1cc(O[C@H]2CCCN(C(=O)Cc3ccccc3)C2)nc(C(F)(F)F)c1 [Compound 1-46, (S)-1-(3-((4-(Aminomethyl)-6-(trifluoromethyl)pyridin-2-yl)oxy)piperidin-1-yl)-2-phenylethanone trifluoroacetate] | < 300
25 | NCc1cc(OCC2CCN(C(=O)Nc3ccccc3)CC2)nc(C(F)(F)F)c1 [Compound 1-42, 4-(((4-(Aminomethyl)-6-(trifluoromethyl)pyridin-2-yl)oxy)methyl)-N-phenylpiperidine-1-carboxamide trifluoroacetate] | < 300
26 | NCc1cc(OC2CCN(C(=O)Nc3ccccc3)CC2)nc(C(F)(F)F)c1 [Compound 1-41, 4-((4-(Aminomethyl)-6-(trifluoromethyl)pyridin-2-yl)oxy)-N-phenylpiperidine-1-carboxamide trifluoroacetate] | 300 to 1000
27 | Cc1cc(=O)n(Cc2cc(CN)cc(C(F)(F)F)n2)c(=O)n1CCO [Compound 1-135, 3-((4-(Aminomethyl)-6-(trifluoromethyl)pyridin-2-yl)methyl)-1-(2-hydroxyethyl)-6-methylpyrimidine-2,4(1H,3H)-dione hydrochloride] | > 1000
28 | CC(C)C(=O)N1CCC[C@H](Oc2cc(CN)cc(C(F)(F)F)n2)C1 [Compound 1-52, (S)-1-(3-((4-(Aminomethyl)-6-(trifluoromethyl)pyridin-2-yl)oxy)piperidin-1-yl)-2-methylpropan-1-one trifluoroacetate] | < 300
29 | CN(C(=O)Cn1ccc2c(Oc3cc(CN)cc(C(F)(F)F)n3)cccc21)c1ccccc1 [Compound 1-38, 2-(4-((4-(Aminomethyl)-6-(trifluoromethyl)pyridin-2-yl)oxy)-1H-indol-1-yl)-N-methyl-N-phenylacetamide hydrochloride] | < 300
30 | NCc1cc(Oc2cc(C(=O)N3C[C@@H](O)[C@H](F)C3)ccc2OCc2ccccc2)nc(C(F)(F)F)c1 (racemic) [Compound 1-231, Racemic-trans-(3-((4-(aminomethyl)-6-(trifluoromethyl)pyridin-2-yl)oxy)-4-(benzyloxy)phenyl)(3-fluoro-4-hydroxypyrrolidin-1-yl)methanone] | < 300
31 | CC(=O)N1CCC2(CC(Oc3cc(CN)cc(C(F)(F)F)n3)C2)C1 (centres unmarked) [Compound 1-244, 1-(2-((4-(Aminomethyl)-6-(trifluoromethyl)pyridin-2-yl)oxy)-6-azaspiro[3.4]octan-6-yl)ethanone hydrochloride] | 300 to 1000
32 | N′-(4-(Aminomethyl)-6-(trifluoromethyl)pyridin-2-yl)-N^3-phenylisophthalamide trifluoroacetate [Compound 1-240] | < 300
